Reference: patent publication US10844051B2, “Substituted oxazoles for the treatment of cancer” (THE ROYAL INSTITUTION FOR THE ADCANCEMENT OF …, priority 2015, dated 2020)
“Also recorded” adds a separate entry of the source. Values belong to the compound of their own block, whether it stands above or below them.

Key:
[1] = test system: androgen receptor (AR) signaling in C4-2B prostate cancer cells; assay: Western blot, AR signaling in C4-2B cells; format: cell-based
[2] = test system: A549 KRAS-mutant NSCLC cells; assay: MTT assay, A549; format: cell-based; details: 72 hours
Procedure: (§1) FIG. 2.7 Compound 673 is cytotoxic in KRAS-mutant NSCLC cells (A549 and H23), but is not toxic the KRAS wild-type NSCLC cells (H322). Cells were exposed to vehicle or compounds (μM) for 72 hours. Viable cells were evaluated by MTT assays.

[3] = test system: GATA family members (GATA1, GATA2, GATA3, GATA4); assay: GATA1-, GATA2-, GATA3- and GATA4-dependent reporter assays in IHH cells; format: cell-based; details: CSS medium, 48 hours
Procedure: In contrast, K7174 is not selective. GATA1-, GATA2-, GATA3- and GATA4-dependent reporter assays were done in IHH cells which were exposed to DMSO vehicle, compound 673 or K7174 (μM) in CSS medium for 48 hours.

LNCaP-GATA2 cells = assay: BrdU cell proliferation assay in LNCaP-GATA2 cells, combination with bicalutamide; format: cell-based; details: equi-molar combination, 48 hours
Procedure: (§2) (A) PSA-luc reporter assay in LNCaP-GATA2 cells, which were exposed to DMSO vehicle, BIC, 673, or equi-molar combination of Bic and 673 for 72 hours in FBS medium. RLU, relative luciferase unit; (B) BrdU Cell Proliferation Assay (Assay Kit #6813, Cell Signaling Tech.). LNCaP-GATA2 cells were exposed to DMSO vehicle, Bic, 673 or equi-molar combination of Bic and 673 for 48 hours. In the last 8 hours, 10 μM BrdU was added to the plate. **p<0.001, ***p<0.001 when compared with BIC at the same doses; #p<0.05, ##p<0.001 when compared with 673 at the same doses.

human GATA2 = biological target: T1, human GATA2 (Homo sapiens, UniProt P23769); assay: GATA2-dependent reporter assay in IHH cells; format: cell-based; details: GATA-Luc reporter, 48 h
T1 construct: expressed in transfected cells; host or cells: IHH
T1 sequence (P23769 1-480): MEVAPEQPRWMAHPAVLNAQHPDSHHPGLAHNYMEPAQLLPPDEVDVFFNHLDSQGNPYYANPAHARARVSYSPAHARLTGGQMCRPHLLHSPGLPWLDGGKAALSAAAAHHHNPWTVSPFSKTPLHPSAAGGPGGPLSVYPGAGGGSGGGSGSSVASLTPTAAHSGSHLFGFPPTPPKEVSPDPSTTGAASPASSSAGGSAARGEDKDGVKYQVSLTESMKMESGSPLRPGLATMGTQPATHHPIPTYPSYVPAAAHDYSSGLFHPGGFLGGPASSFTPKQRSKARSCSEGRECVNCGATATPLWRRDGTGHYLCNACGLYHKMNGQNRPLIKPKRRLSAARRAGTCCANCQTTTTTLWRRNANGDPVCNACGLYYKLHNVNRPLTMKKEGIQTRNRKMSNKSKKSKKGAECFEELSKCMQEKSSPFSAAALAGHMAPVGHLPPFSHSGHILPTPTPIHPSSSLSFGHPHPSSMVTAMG
Procedure: K7174 is a known GATA2 inhibitor. The IHH cells were transiently transfected with empty vector (for the NT) or human GATA2-expressing plasmid as well as pRL-TK (internal control) and GATA-Luc reporter plasmids. Cells were exposed to DMSO vehicle or compounds for 48 h. Experiments were in triplicate.

human GATA3 = biological target: T2, human GATA3 (Homo sapiens, UniProt P23771); assay: GATA3-dependent reporter assay in IHH cells; format: cell-based; details: 48 hours
T2 construct: expressed in transfected cells; host or cells: IHH
T2 sequence (P23771 whole entry): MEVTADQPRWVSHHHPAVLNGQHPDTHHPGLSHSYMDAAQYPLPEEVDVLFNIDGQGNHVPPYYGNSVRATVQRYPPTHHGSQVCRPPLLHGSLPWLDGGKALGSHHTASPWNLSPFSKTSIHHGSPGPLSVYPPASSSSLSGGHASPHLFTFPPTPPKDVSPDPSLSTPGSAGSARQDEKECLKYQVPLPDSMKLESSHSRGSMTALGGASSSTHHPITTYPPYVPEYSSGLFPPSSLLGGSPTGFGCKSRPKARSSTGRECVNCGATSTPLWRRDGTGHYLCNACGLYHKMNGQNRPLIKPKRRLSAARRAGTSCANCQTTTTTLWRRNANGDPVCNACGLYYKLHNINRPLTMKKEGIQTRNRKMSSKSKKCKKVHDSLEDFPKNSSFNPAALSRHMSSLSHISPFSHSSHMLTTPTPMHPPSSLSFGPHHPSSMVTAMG
Procedure: The IHH cells were transiently transfected with empty vector (for the NT) or human GATA3-expressing plasmid as well as pRL-TK (internal control) and GATA-Luc reporter plasmids. Cells were exposed to DMSO vehicle or compounds for 48 hours. Experiments were done in triplicate.

human STING (hSTING) = biological target: T3, human STING (hSTING) (Homo sapiens, UniProt Q86WV6); assay: hSTING ISRE-luc reporter assay in 293T cells; format: cell-based; details: 24 hours
T3 construct: expressed in transfected cells; host or cells: 293T
T3 sequence (Q86WV6 whole entry H232R): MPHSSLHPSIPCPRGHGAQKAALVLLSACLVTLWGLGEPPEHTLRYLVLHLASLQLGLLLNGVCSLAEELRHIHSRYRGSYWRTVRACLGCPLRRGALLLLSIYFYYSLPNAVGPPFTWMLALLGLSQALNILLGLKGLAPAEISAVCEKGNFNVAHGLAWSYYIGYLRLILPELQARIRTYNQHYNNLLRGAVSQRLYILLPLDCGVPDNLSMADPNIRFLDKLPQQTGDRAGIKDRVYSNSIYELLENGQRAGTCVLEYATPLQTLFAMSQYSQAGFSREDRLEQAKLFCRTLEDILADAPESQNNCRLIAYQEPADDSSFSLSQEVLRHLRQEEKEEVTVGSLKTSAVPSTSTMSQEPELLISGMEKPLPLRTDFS
Procedure: ISRE-luc (reporter), pRL-TK (internal control) and hSTING-expressing plasmids were transiently transfected into 293T cells. Cells were exposed to DMSO vehicle control or compounds for 24 hours. Experiments were done in triplicate.

[4] = test system: AR signaling in LNCaP-GATA2, HP-LNCaP, C4-2B and 22Rv1 cells; assay: Western blot, AR signaling in LNCaP-GATA2 and CRPC cells; format: cell-based; details: LNCaP-GATA2 in FBS medium, 22Rv1 in CSS medium, 72 hours
Procedure: FIG. 2.11 By breaking AR-GATA2 feedback loop, compound 673 suppresses the AR signaling in CRPC cells. […] Cells were exposed to DMSO vehicle, BIC, 673 or K7174 at designated doses (μM) for 72 hours.

[5] = biological target: T4, recombinant protein of human GATA2 (Homo sapiens, UniProt P23769); assay: SPR analysis on amine-coupled GATA2; format: binding
T4 sequence (P23769 1-480): T1 sequence (P23769 1-480)
Source text: In embodiments of the invention, the androgen-bound AR is regressing GATA2 expression and inhibition of AR via castration or use of antiandrogen releases such expression. […] Overexpression of GATA2 confers resistance to antiandrogen bicalutamide (Bic) (FIG. 2.9). Compound 673 is effective against the LNCaP stably transfected with GATA2-expressing plasmid (referred to as LNCaP-GATA2 cells) (FIG. 2.8).

[6] = test system: GATA2 expression in C4-2B cells; assay: Western blot, GATA2 expression in C4-2B cells; format: cell-based
[7] = test system: H23 KRAS-mutant NSCLC cells; assay: MTT assay, H23; format: cell-based; details: KRAS-mutant NSCLC, 72 hours
Procedure: as §1
Panc 10.05, H23 and HCT-116 cells express endogenous KRAS 12D, 12C and 13D mutants, respectively. Cells were exposed to DMSO vehicle or compounds at designated doses for 72 hours. Experiments were done in triplicate.

wild-type IRF3 = biological target: T5, wild-type IRF3 (Homo sapiens, UniProt Q14653); assay: ISRE-luc reporter assay in PC3 cells, wild-type IRF3; format: cell-based; details: 5 μM
T5 construct: host or cells: PC3
T5 sequence (Q14653 whole entry, species assumed): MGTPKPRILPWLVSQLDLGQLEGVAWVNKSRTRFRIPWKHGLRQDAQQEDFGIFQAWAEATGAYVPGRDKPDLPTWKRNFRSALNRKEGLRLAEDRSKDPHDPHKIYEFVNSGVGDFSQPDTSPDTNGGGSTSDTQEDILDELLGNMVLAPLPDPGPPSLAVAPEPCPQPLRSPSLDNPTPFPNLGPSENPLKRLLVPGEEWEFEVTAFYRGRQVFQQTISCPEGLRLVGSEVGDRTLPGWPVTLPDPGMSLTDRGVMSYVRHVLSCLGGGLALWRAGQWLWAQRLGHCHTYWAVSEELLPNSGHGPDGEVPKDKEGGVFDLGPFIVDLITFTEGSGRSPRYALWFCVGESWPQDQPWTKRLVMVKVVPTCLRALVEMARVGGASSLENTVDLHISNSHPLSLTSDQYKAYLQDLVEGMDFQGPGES

[8] = test system: PSA-luc reporter in LNCaP-GATA2 cells; assay: PSA-luc reporter assay in LNCaP-GATA2 cells, combination with bicalutamide; format: cell-based; details: equi-molar combination, 72 hours, FBS medium
Procedure: as §2

[9] = test system: H322 KRAS wild-type NSCLC cells; assay: MTT assay, H322; format: cell-based; details: 72 hours
Procedure: as §1

ERG = biological target: T6, ERG (Homo sapiens, UniProt P11308); assay: ERG-dependent reporter assay in HEK293 cells; format: cell-based; set-up: expressed in transfected cells; host or cells: HEK293; details: PUx3-Luc reporter, 48 hours, designated doses
T6 sequence (P11308 1-486 isoform P11308-3): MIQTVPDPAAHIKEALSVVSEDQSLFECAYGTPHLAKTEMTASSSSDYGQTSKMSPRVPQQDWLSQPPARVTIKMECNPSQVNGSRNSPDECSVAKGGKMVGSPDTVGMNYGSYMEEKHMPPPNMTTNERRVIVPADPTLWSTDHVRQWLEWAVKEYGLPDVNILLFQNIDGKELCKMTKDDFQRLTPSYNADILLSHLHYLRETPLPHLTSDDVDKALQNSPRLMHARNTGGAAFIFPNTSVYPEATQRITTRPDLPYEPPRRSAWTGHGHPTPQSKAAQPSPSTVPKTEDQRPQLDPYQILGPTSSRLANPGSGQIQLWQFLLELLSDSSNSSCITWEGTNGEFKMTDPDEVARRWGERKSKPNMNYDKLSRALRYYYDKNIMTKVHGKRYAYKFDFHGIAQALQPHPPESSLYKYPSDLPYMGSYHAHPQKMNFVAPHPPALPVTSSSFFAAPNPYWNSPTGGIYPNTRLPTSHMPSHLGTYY
Procedure: HEK293 cells were transiently transfected with empty vector (for the NT) or ERG-expressing plasmid as well as pRL-TK (internal control) and PUx3-Luc reporter. Cells were then exposed to DMSO vehicle or compounds at designated doses for 48 hours. Experiments were done in triplicate.

[10] = test system: fusion protein IRF3DBD-GATA2NTD; assay: ISRE-luc reporter assay in PC3 cells, IRF3DBD-GATA2NTD; format: cell-based; details: 5 μM
GATA = details: read-out: IC50 in reporter assay; cited from earlier work

SMILES: Fc1cccc(-c2nc(CCCc3c[nH]c4ccccc34)oc2-c2cccc(F)c2)c1 [Compound 673]
suppression of androgen receptor (AR) signaling (Western blot) [1]: potently inhibits the AR signaling; also recorded: suppresses the androgen receptor (AR) signaling | cytotoxicity in A549 cells (MTT) [2]: cytotoxic | selectivity for GATA2 among GATA family members [3]: selectively inhibits GATA2 | effect of combination with bicalutamide (BIC) in BrdU cell proliferation assay (LNCaP-GATA2 cells): Synergistic effect | GATA2 inhibition in GATA2-dependent reporter assay (human GATA2): GATA2 inhibitors | activity against GATA3 in GATA3-dependent reporter assay (human GATA3; 10 μM): inactive against GATA3 | activity against GATA3 in GATA3-dependent reporter assay (human GATA3; compounds at 5 μM): inactive against GATA3 | activation of hSTING in ISRE-luc reporter assay (human STING (hSTING)): activate hSTING | suppression of AR signaling in LNCaP-GATA2 and CRPC cells (WB) [4]: suppresses the AR signalling in CRPC cells; also recorded: effective in suppressing AR signaling | dose-dependent binding to amine-coupled GATA2 (SPR) ([5]; 0-50 μM, 2-fold dilution series): Specific and dose-dependent binding | binding to amine-coupled GATA2 (SPR) ([5]; 50 μM each): Direct binding; also recorded: Specific binding | inhibition of GATA2 expression (Western blot) [6]: inhibits GATA2 expression | cytotoxicity in H23 cells (MTT) [7]: cytotoxic | activity against wild-type IRF3 (ISRE-luc) (wild-type IRF3): inactive | effect of combination with bicalutamide (BIC) in PSA-luc reporter assay [8]: Synergistic effect | cytotoxicity in H322 cells (MTT) [9]: not toxic | ERG inhibition in ERG-dependent reporter assay (ERG): ERG inhibitors | activity against fusion protein IRF3DBD-GATA2NTD (ISRE-luc) [10]: active

activity against GATA3 in GATA3-dependent reporter assay (human GATA3; compounds at 5 μM): active against GATA3
SMILES: COc1cc(/C=C/CCCN2CCCN(CCC/C=C/c3cc(OC)c(OC)c(OC)c3)CC2)cc(OC)c1OC [Compound K7174, K7174, reference compound]
selectivity for GATA2 among GATA family members [3]: not selective | IC50 (GATA): ~15 µM
